Data as given in patent US20240294548A1, “TRICYCLIC SULTAMS AND SULFAMIDES AS ANTITUMOR AGENTS” (PELOTON THERAPEUTICS INC., priority 2021, published 2024).
Like-named read-outs stand apart in the source and are kept apart here.

How the values were obtained:
[1] = test system: HCT116 human colorectal carcinoma cells; assay: CellTiter-Glo assay (cell viability); assay type: cell-based; conditions: HCT-116, 72 h, read-out: CTG IC50
Outline: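 Cells (3,000/well) in DMEM/10% FBS were treated next day with 3-fold serial dilutions (final top […]) in triplicate for 3 days. Viability read by CellTiter-Glo luminescence; IC50 derived from dose-response.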

[2] = molecular target: T1, DCAF15 (DDA1-DDB1ΔB-DCAF15Δpro) (Homo sapiens, UniProt Q66K64, DEL276-383); assay: DCAF15 displacement assay (displacement FRET, probe PT7795); assay type: binding
T1 construct: made in house; host or cells: Sf9 (Bac-to-Bac baculovirus)

[3] = molecular target: T2, DCAF15 RBM39 ternary complex (Homo sapiens, UniProt Q14498+Q66K64, DEL276-383); assay: DCAF15 RBM39 complex formation assay (FRET); assay type: biochemical
T2 construct: Amino acids 150 to 331 of RBM39 were cloned into pGEX4T3; GST (from the pGEX4T3 vector, own knowledge) followed by a TEV cleavage site (N); made in house; host or cells: Sf9 baculovirus (DDB1ΔB/DCAF15); E. coli (RBM39 R1R2)
Outline: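 Mix of 20 nM DDB1DB/DCAF15, 50 nM RBM39 R1R2, 0.2 nM Eu-anti-6×His and 50 nM APC-anti-FLAG (25 mM HEPES pH 7.5, 100 mM NaCl). Compounds, 1 μM down in 3-fold steps over 14 points, kept overnight at 4 °C.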

[4] = HCT116 cells, 3 days, CellTiter-Glo luminescence
[5] = displacement of PT7795 (300 nM), compound 0.01 to 100 μM, 18 hours incubation, read-out: DCAF15 displacement IC50
[6] = FRET ratio, 20 nM DDB1DB/DCAF15, 50 nM RBM39 R1R2, overnight at 4° C., read-out: DCAF15 RBM39 ternary complex EC50

T2 sequence (Q66K64 with tags, fused parts or gaps DEL276-383): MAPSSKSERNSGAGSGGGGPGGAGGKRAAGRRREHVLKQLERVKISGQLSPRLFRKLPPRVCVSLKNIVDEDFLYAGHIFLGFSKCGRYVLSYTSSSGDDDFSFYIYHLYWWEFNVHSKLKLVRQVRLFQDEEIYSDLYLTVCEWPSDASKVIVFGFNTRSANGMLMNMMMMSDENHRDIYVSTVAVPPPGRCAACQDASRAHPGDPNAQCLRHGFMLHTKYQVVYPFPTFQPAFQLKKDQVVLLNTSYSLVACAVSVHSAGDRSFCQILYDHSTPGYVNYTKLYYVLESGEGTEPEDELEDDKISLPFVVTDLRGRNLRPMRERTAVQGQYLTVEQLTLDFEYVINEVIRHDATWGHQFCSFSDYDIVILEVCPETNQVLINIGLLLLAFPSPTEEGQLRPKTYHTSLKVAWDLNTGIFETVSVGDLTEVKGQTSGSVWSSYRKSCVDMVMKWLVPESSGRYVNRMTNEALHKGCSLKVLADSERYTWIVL
T2 sequence (Q14498 150-331, stated change not applied): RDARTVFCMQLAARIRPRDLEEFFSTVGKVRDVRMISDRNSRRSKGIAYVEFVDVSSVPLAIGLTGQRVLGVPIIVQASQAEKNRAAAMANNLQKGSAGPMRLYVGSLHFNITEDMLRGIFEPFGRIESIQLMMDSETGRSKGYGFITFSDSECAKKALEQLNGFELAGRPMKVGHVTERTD

Row | SMILES | IC50 [1, 4] | IC50 [2, 5] | EC50 [3, 6] | IC50 [1] | IC50 [2] | EC50 [3]
1 | N#Cc1c[nH]c2c3c(cc(Cl)c12)CNS(=O)(=O)N3 [Compound 58, 6-chloro-1,3,4,9-tetrahydro-[1,2,6]thiadiazino[4,3-g]indole-7-carbonitrile 2,2-dioxide] | 5000 nM | 14900 nM | 46.2 nM |  |  | 
2 | O=S1(=O)Nc2c(cc(Cl)c3c(Cl)c[nH]c23)CN1Cc1cnccn1 [Compound 59, 6,7-dichloro-3-(pyrazin-2-ylmethyl)-1,3,4,9-tetrahydro-[1,2,6] thiadiazino[4,3-g]indole 2,2-dioxide] | 120 nM | 325 nM | 2 nM |  |  | 
3 | O=c1cc(CN2Cc3cc(Cl)c4c(Cl)c[nH]c4c3NS2(=O)=O)cc[nH]1 [Compound 60, 4-((6,7-dichloro-2,2-dioxido-4,9-dihydro-[1,2,6]thiadiazino[4,3-g]indol-3(1H)-yl)methyl)pyridin-2(1H)-one] | 2840 nM | 162 nM | 2.4 nM |  |  | 
4 | O=S1(=O)Nc2c(cc(Cl)c3c(Cl)c[nH]c23)CN1Cc1ccnc(Cl)c1 [Compound 63, 6,7-dichloro-3-((2-chloropyridin-4-yl)methyl)-1,3,4,9-tetrahydro-[1,2,6] thiadiazino[4,3-g]indole 2,2-dioxide] | 351 nM | 328 nM | 1 nM |  |  | 
5 | COCCN1Cc2cc(Cl)c3c(Cl)n[nH]c3c2NS1(=O)=O [Compound 64, 6,7-dichloro-3-(2-methoxyethyl)-1,3,4,9-tetrahydro-[1,2,6]thiadiazino[4,3-g]indazole 2,2-dioxide] | 5000 nM | 4560 nM | 10 nM |  |  | 
6 | Cn1cc(CN2Cc3cc(Cl)c4c(Cl)c[nH]c4c3NS2(=O)=O)ccc1=O [Compound 65, 5-((6,7-dichloro-2,2-dioxido-4,9-dihydro-[1,2,6]thiadiazino[4,3-g]indol-3(1H)-yl)methyl)-1-methylpyridin-2(1H)-one] | 493 nM | 934 nM | 1.9 nM |  |  | 
7 | CC1(C)Cc2cc(Cl)c3c(Cl)c[nH]c3c2NS1(=O)=O [Compound 66, 6,7-dichloro-3,3-dimethyl-1,3,4,9-tetrahydro-[1,2]thiazino[4,3-g]indole 2,2-dioxide] | 5000 nM | ≥ 100000 nM | 108 nM |  |  | 
8 | O=S1(=O)Nc2c(cc(Cl)c3c(Cl)c[nH]c23)CN1Cc1ccnnc1 [Compound 67, 6,7-dichloro-3-(pyridazin-4-ylmethyl)-1,3,4,9-tetrahydro-[1,2,6] thiadiazino[4,3-g]indole 2,2-dioxide] | 320 nM | 452 nM | 2 nM |  |  | 
9 | COCCCN1Cc2cc(Cl)c3c(Cl)c[nH]c3c2NS1(=O)=O [Compound 68, 6,7-dichloro-3-(3-methoxypropyl)-1,3,4,9-tetrahydro-[1,2,6] thiadiazino[4,3-g]indole 2,2-dioxide] | 205 nM | 630 nM | 2.3 nM |  |  | 
10 | O=S1(=O)Nc2c(cc(Cl)c3c(Cl)c[nH]c23)CN1Cc1ccc(F)cc1 [Compound 69, 6,7-dichloro-3-(4-fluorobenzyl)-1,3,4,9-tetrahydro-[1,2,6] thiadiazino[4,3-g]indole 2,2-dioxide] | 1200 nM | 7560 nM | 3.9 nM |  |  | 
11 | O=S1(=O)Nc2c(cc(Cl)c3c(Cl)c[nH]c23)CN1Cc1ccccc1F [Compound 70, 6,7-dichloro-3-(2-fluorobenzyl)-1,3,4,9-tetrahydro-[1,2,6] thiadiazino[4,3-g]indole 2,2-dioxide] | 833 nM | 1950 nM | 3.3 nM |  |  | 
12 | O=S1(=O)Nc2c(cc(Cl)c3c(Cl)c[nH]c23)CN1CCN1CCOCC1 [Compound 71, 6,7-dichloro-3-(2-morpholinoethyl)-1,3,4,9-tetrahydro-[1,2,6] thiadiazino[4,3-g]indole 2,2-dioxide] |  |  |  | 353 nM | 952 nM | 2.1 nM
13 | CS(=O)(=O)N1CCC(CN2Cc3cc(Cl)c4c(Cl)c[nH]c4c3NS2(=O)=O)CC1 [Compound 72, 6,7-dichloro-3-((1-(methylsulfonyl)piperidin-4-yl)methyl)-1,3,4,9-tetrahydro-[1,2,6]thiadiazino[4,3-g]indole 2,2-dioxide] | 150 nM | 223 nM | 1.2 nM |  |  | 
14 | O=S1(=O)Nc2c(cc(Cl)c3c(Cl)c[nH]c23)CN1Cc1cccc(O)c1 [Compound 73, 6,7-dichloro-3-(3-hydroxybenzyl)-1,3,4,9-tetrahydro-[1,2,6] thiadiazino[4,3-g]indole 2,2-dioxide] | 418 nM | 1650 nM | 1.3 nM |  |  | 
15 | Nc1ccccc1CN1Cc2cc(Cl)c3c(Cl)c[nH]c3c2NS1(=O)=O [Compound 74, 3-(2-aminobenzyl)-6,7-dichloro-1,3,4,9-tetrahydro-[1,2,6] thiadiazino[4,3-g]indole 2,2-dioxide] | 171 nM | 301 nM | 1.3 nM |  |  | 
16 | O=S1(=O)Nc2c(cc(Cl)c3c(Cl)c[nH]c23)CN1Cc1cccc(F)c1 [Compound 75, 6,7-dichloro-3-(3-fluorobenzyl)-1,3,4,9-tetrahydro-[1,2,6] thiadiazino[4,3-g]indole 2,2-dioxide] | 850 nM | 4320 nM | 2.3 nM |  |  | 
17 | Nc1cccc(CN2Cc3cc(Cl)c4c(Cl)c[nH]c4c3NS2(=O)=O)c1 [Compound 76, 3-(3-aminobenzyl)-6,7-dichloro-1,3,4,9-tetrahydro-[1,2,6] thiadiazino[4,3-g]indole 2,2-dioxide] | 254 nM | 569 nM | 1.2 nM |  |  | 
18 | CN1CCC(CN2Cc3cc(Cl)c4c(Cl)c[nH]c4c3NS2(=O)=O)CC1 [Compound 83, 6,7-dichloro-3-((1-methylpiperidin-4-yl)methyl)-1,3,4,9-tetrahydro-[1,2,6]thiadiazino[4,3-g]indole 2,2-dioxide] | 66.9 nM | 781 nM | 2.3 nM |  |  | 
19 | O=S1(=O)Nc2c(cc(Cl)c3c(Cl)c[nH]c23)CN1CCc1ccccc1 [Compound 84, 6,7-dichloro-3-phenethyl-1,3,4,9-tetrahydro-[1,2,6] thiadiazino[4,3-g]indole 2,2-dioxide] | 1790 nM | 33100 nM | 4.3 nM |  |  | 
20 | O=S1(=O)Nc2c(cc(Cl)c3c(Cl)c[nH]c23)CN1CC1CC(F)(F)C1 [Compound 85, 6,7-dichloro-3-((3,3-difluorocyclobutyl)methyl)-1,3,4,9-tetrahydro-[1,2,6] thiadiazino[4,3-g]indole 2,2-dioxide] | 302 nM | 8380 nM | 2 nM |  |  | 
21 | O=S1(=O)Nc2c(cc(Cl)c3c(Cl)c[nH]c23)CN1CC1CCOC1 (stereo not drawn) [Compound 86, 6,7-dichloro-3-((tetrahydrofuran-3-yl)methyl)-1,3,4,9-tetrahydro-[1,2,6] thiadiazino[4,3-g]indole 2,2-dioxide] | 121 nM | 410 nM | 1.3 nM |  |  | 
22 | COCCN1Cc2cc(C)c3c(Cl)c[nH]c3c2NS1(=O)=O [Compound 87, 7-chloro-3-(2-methoxyethyl)-6-methyl-1,3,4,9-tetrahydro-[1,2,6] thiadiazino[4,3-g]indole 2,2-dioxide] | 258 nM | 6220 nM | 1.8 nM |  |  | 
